{"source": "patent US9896663B2", "about": "“Leukaemia stem cell line, its method of production and uses thereof” (Peter MacCallum Cancer Institute, priority 2016, dated 2018)", "key": {"[1]": {"tested_on": "MLL-AF9 AML, I-BET resistant cell line", "experiment": "Syngeneic transplantation AML model, recipients of resistant cells, survival", "format": "in vivo, C57BL/6 mice", "settings": "identical treatment strategy; P=0.877, n=6, log-rank; FIG. 1I", "description": "(§1) Serial syngeneic transplantation studies of drug efficacy, generation of in vivo resistance and limit dilution analyses were performed with intravenous injection of between 10 to 2.5×10^6 cells per mouse obtained from bone marrow or spleen.\n(§2) Syngeneic transplantation studies were performed in C57BL/6 mice (wild type or expressing Ptprc^a). All mice were 6-10 weeks old at the time of sub-lethal irradiation (300 cGy) and intravenous cell injection. […] Mice were randomly assigned treatment groups; treatment administration was not blinded. Sample sizes were determined according to the resource equation method. Differences in Kaplan-Meier survival curves were analysed using the log-rank statistic."}, "[2]": {"tested_on": "MLL-AF9 AML, parental cell line", "experiment": "Syngeneic transplantation AML model, recipients of the parental cell line, survival", "format": "in vivo, C57BL/6 mice", "settings": "I-BET 20-30 mg/kg IP; P<0.01, n=6, log-rank; FIG. 1H", "description": "as §1, §2"}, "[3]": {"tested_on": "Murine HSPCs transduced with MLL-AF9", "experiment": "Selection of MLL-AF9 transduced HSPCs in cytokine-supplemented methylcellulose with I-BET (IC40)", "format": "cell-based, mouse", "source_text": "Initial generation of immortalised parental cell lines was achieved through magnetic bead selection (Miltenyi Biotec) of c-kit positive cells, obtained from whole bone marrow of male and female C57BL/6 mice, and subsequent retroviral transduction with either an MSCV-MLL-AF9-IRES-YFP or an MSCV-MLL-ENL construct.\nIndividual vehicle-treated or resistant colonies were picked and transferred to liquid culture to generate clonal cell lines. […] Vehicle-treated clones were also continuously maintained in 0.1% DMSO and passaged in identical fashion. The parental cell line was continuously maintained with no exposure to vehicle or drug."}, "[4]": {"tested_on": "L-GMPs from I-BET naive mice", "experiment": "Clonogenic assay of sorted I-BET naive L-GMPs", "format": "cell-based, mouse", "settings": "1 μM I-BET; FIG. 2H", "description": "(§3) Clonogenic potential was assessed through colony growth of derived cell lines plated in cytokine supplemented methylcellulose (Methocult M3434, Stemcell Technologies). […] Gr1−/CD11b- and Gr1+/CD11b+ fractions of resistant cell lines were plated in duplicate following FACS sorting at a cell dose of between 2×10^2 and 2×10^3 cells per plate. […] Cells were incubated at 37° C. and 5% CO2 for 7 to 10 days at which time colonies were counted.\nImmunophenotype assessment for markers of committed differentiation was undertaken through staining with Alexa Fluor 700 anti-Gr-1 (108422, BioLegend) and Brilliant Violet 605 anti-CD11b (101237, BioLegend). Assessment of L-GMP populations was undertaken through staining with eFluor 660 anti-CD34 (50-0341-82, eBioscience), biotin lineage antibody cocktail (120-001-547, Miltenyi Biotec), PerCP/Cy5.5 anti-CD16/32 (101324, BioLegend), APC/Cy7 anti-CD117 (105826, BioLegend) and Pacific Blue anti-Ly-6A (122520, BioLegend) followed by secondary staining with V500 streptavidin (561419, BD Biosciences). […]"}, "I-BET resistant cells": {"tested_on": "I-BET resistant cells", "experiment": "Clonogenic, apoptosis and cell cycle assays, I-BET resistant cells", "format": "cell-based, mouse", "settings": "FIG. 1D-F", "description": "as §3\n(§4) Cell apoptosis was assessed using APC conjugated Annexin V (550475, BD Biosciences) and propidium iodide (PI) (P4864, Sigma-Aldrich) staining according to manufacturer's instructions.\n(§5) For cell cycle analysis, cells were fixed overnight at −20° C. in 70% EtOH/PBS. Prior to flow cytometry analysis, cells were incubated at 37° C. for 30 minutes in PI staining solution (0.02 mg/mL PI, 0.05% v/v Triton-X in PBS, supplemented with DNase-free RNase A (19101, Qiagen) or incubated at room temperature for 10 minutes with 4′,6-diamidino-2-phenylindole (DAPI) staining solution (1 μg/ml DAPI, 0.05% v/v Triton-X in PBS)."}, "[5]": {"tested_on": "vehicle treated cells / I-BET naive bulk leukaemia cells", "experiment": "Clonogenic, apoptosis and cell cycle assays, vehicle treated (I-BET naive) cells", "format": "cell-based, mouse", "description": "as §3, §4, §5"}, "[6]": {"tested_on": "human AML patient derived xenograft", "experiment": "Patient derived xenograft (PDX) model of AML", "format": "in vivo, NOD SCID gamma (NSG) mice", "settings": "I-BET 10 mg/kg for 2 weeks; FIG. 2G", "from_the_text": "Immunophenotype assessment for markers of committed differentiation was undertaken through staining with Alexa Fluor 700 anti-Gr-1 (108422, BioLegend) and Brilliant Violet 605 anti-CD11b (101237, BioLegend). Assessment of L-GMP populations was undertaken through staining with eFluor 660 anti-CD34 (50-0341-82, eBioscience), biotin lineage antibody cocktail (120-001-547, Miltenyi Biotec), PerCP/Cy5.5 anti-CD16/32 (101324, BioLegend), APC/Cy7 anti-CD117 (105826, BioLegend) and Pacific Blue anti-Ly-6A (122520, BioLegend) followed by secondary staining with V500 streptavidin (561419, BD Biosciences). Assessment of leukemic LMPP and GMP populations in patient derived xenografts was undertaken through staining with APC/Cy7 anti-mouse CD45.1 (110716, Biolegend), eFluor 450 anti-mouse Ter119 (48-5921-82, eBioscience), FITC anti-human CD45 (11-9459-42, eBioscience), BV711 anti-human CD38 (563965, BD Biosciences), PE anti-human CD90 (561970, BD Biosciences), PE-Cy5 anti-human CD123 (15-1239-41, eBioscience), PerCP-Cy5.5 anti-human CD45RA (45-0458-42), biotin anti-human CD3 (555338, BD Biosciences), biotin anti-human CD19 (555411, BD Biosciences), PE-Cy7 anti-human CD33 (333946, BD Biosciences) and APC anti-human CD34 (555824, BD Biosciences) followed by secondary staining with V500 streptavidin (561419, BD Biosciences). […]"}, "I-BET resistant clones": {"tested_on": "I-BET resistant clones", "experiment": "Cell growth of I-BET resistant clones under JQ1", "format": "cell-based, mouse", "settings": "100 nM JQ1; FIG. 1C", "description": "Following 72 hour incubation, resazurin was added to each well and plates were further incubated for 3 hours. Fluorescence was then read at 560 nm/590 nm on a Cytation 3 Imaging Reader (BioTek). Cell counts were performed using a haemocytometer. Determination of in vitro synergy in proliferation assays was undertaken according to the method of Zhao et al. (2014, Journal of molecular screening, 19: 817-821)."}}, "data": [{"smiles": "COc1cc2c(cc1-c1c(C)noc1C)ncc1[nH]c(=O)n([C@H](C)c3ccccn3)c12", "note": "[I-BET, I-BET 151]", "values": [{"measurement": "survival", "setting": "[1]", "result": "survival advantage is abrogated"}, {"measurement": "survival", "setting": "[2]", "result": "significant survival advantage"}, {"measurement": "IC40", "setting": "[3]", "result": 400, "unit": "nM"}, {"measurement": "L-GMPs able to survive in clonogenic assay", "setting": "[4]", "result": "30-40%"}, {"measurement": "I-BET mediated suppression of clonogenic capacity, induction of apoptosis and cell cycle arrest", "setting": "I-BET resistant cells", "result": "impervious"}, {"measurement": "clonogenic potential", "setting": "[5]; 1 μM I-BET, I-BET naive bulk leukaemia cells, FIG. 1D", "result": "virtually eradicates"}, {"measurement": "I-BET mediated suppression of clonogenic capacity, induction of apoptosis and cell cycle arrest", "setting": "[5]; vehicle treated cells, FIG. 1D-F", "result": "exquisitely sensitive"}, {"measurement": "effect on leukemic LMPP population (hCD45 expression)", "setting": "[6]", "result": "enriches for the leukemic LMPP population"}]}, {"smiles": "Cc1sc2c(c1C)C(c1ccc(Cl)cc1)=N[C@@H](CC(=O)OC(C)(C)C)c1nnc(C)n1-2", "note": "[JQ1]", "values": [{"measurement": "resistance of I-BET resistant clones to JQ1", "setting": "I-BET resistant clones", "result": "cross-resistance"}]}]}
